Source: paper PMC12677607, “Identification of a Pair of Linear or Cyclic Naturally Inspired Bifunctional Lipopeptide Antibiotics That Overcome Antimicrobial Resistance” (Advanced Science, 2025)
≈ marks a conversion by molar mass, not a printed value. Numbered stars: 1 amine (or outer) side, 2 acyl side, 3 side chain; on linkers, the order of the positions; unused ones are H or OH. Bridge positions count the residues as written; N and C are the ends. Square brackets hold non-standard residues; d marks the D form. Peptide text beside a SMILES is read from it. * marks the point of attachment. Octanoyl(3R-OH) = CCCCC[C@@H](O)CC(=O)*; X3 = CCCCC[C@H](CC(=O)[*:1])O[*:2]; Myristoyl = CCCCCCCCCCCCCC(=O)*; Orn = NCCC[C@H](N)C(=O)O; Dab = NCC[C@H](N)C(=O)O; Dap = NC[C@H](N)C(=O)O

Legend:
[1] = test system: Candida albicans ATCC 64550; format: cell-based; settings: ATCC 64550, 16 h
Experimental: (§1) All MIC assays were performed two independent times (n = 2) in 96‐well plates using a broth micro‐dilution method. The lowest concentration of that inhibited visible microbial growth was recorded as the MIC value.
(§2) For fungal strains, overnight cultures were diluted 2000‐fold in YPD broth. 100 µL of diluted cells was mixed with 100 µL of YPD broth containing each peptide ranging from […] 64 to 0.125 µg mL^−1 at 2‐fold serial dilutions.

[2] = test system: Candida albicans ATCC 10231; assay: MIC assay (YPD broth); format: cell-based; settings: for MIC (μg/mL) C. albicans ATCC 10231: ATCC 10231, 16 h
Experimental: as §1, §2

[3] = test system: Staphylococcus aureus Newman; assay: microbe, parasite or virus in culture; format: cell-based; settings: Newman, 16 h
Experimental: as §1
(§3) For most of bacterial strains, overnight cultures were diluted 5000‐fold in LB broth. For E. faecium and S. aureus, overnight cultures were diluted 1000‐ and 10000‐fold in LB broth, respectively. 100 µL of diluted cells was mixed with 100 µL of LB broth containing each peptide ranging from 64 to 0.125 µg mL^−1 at 2‐fold serial dilutions.

[4] = test system: Staphylococcus aureus USA300; assay: microbe, parasite or virus in culture; format: cell-based; settings: for MIC (μg/mL) S. aureus USA300: USA300, 16 h
Experimental: as §1, §3

[5] = test system: Acinetobacter baumannii P53; assay: microbe, parasite or virus in culture; format: cell-based; settings: Table S11; LB broth, 37 °C, 16 h, n = 2
Experimental: as §1, §3

[6] = test system: Staphylococcus aureus ATCC 6538; assay: microbe, parasite or virus in culture; format: cell-based; settings: ATCC 6538, 16 h
Experimental: as §1, §3

[7] = test system: Vibrio alginolyticus XSBZ14; assay: microbe, parasite or virus in culture; format: cell-based; settings: 16 h
Experimental: as §1, §3

[8] = test system: Salmonella enterica ATCC 14028; assay: microbe, parasite or virus in culture; format: cell-based; settings: ATCC 14028, 16 h
Experimental: as §1, §3

[9] = test system: Pseudomonas aeruginosa PAO1; assay: microbe, parasite or virus in culture; format: cell-based; settings: PAO1, 16 h
Experimental: as §1, §3

[10] = test system: Enterococcus faecalis 28; assay: microbe, parasite or virus in culture; format: cell-based; settings: 28, 16 h
Experimental: as §1, §3

[11] = test system: Klebsiella pneumoniae CRKP 5452; assay: microbe, parasite or virus in culture; format: cell-based; settings: for MIC (μg/mL) K. pneumoniae CRKP 5452: CRKP 5452, 16 h
Experimental: as §1, §3

[12] = test system: Enterococcus faecium 35682; assay: microbe, parasite or virus in culture; format: cell-based; settings: Table S11; LB broth, 37 °C, 16 h, n = 2
Experimental: as §1, §3

[13] = test system: Streptococcus mutans ATCC 25175; assay: microbe, parasite or virus in culture; format: cell-based; settings: ATCC 25175, 16 h
Experimental: as §1, §3

[14] = test system: Klebsiella pneumoniae CRKP HS11286; assay: microbe, parasite or virus in culture; format: cell-based; settings: CRKP HS11286, 16 h
Experimental: as §1, §3

[15] = test system: Klebsiella pneumoniae NCTC 5056; assay: microbe, parasite or virus in culture; format: cell-based; settings: NCTC 5056, 16 h
Experimental: as §1, §3

[16] = test system: Streptococcus pyogenes ATCC 19615; assay: microbe, parasite or virus in culture; format: cell-based; settings: for MIC (μg/mL) S. pyogenes ATCC 19615: ATCC 19615, 16 h
Experimental: as §1, §3

[17] = test system: Acinetobacter baumannii 1104008; assay: microbe, parasite or virus in culture; format: cell-based; settings: for MIC (μg/mL) A. baumannii 1104008: 1104008, 16 h
Experimental: as §1, §3

[18] = test system: Acinetobacter baumannii ATCC 19606; assay: microbe, parasite or virus in culture; format: cell-based; settings: ATCC 19606, 16 h
Experimental: as §1, §3

[19] = test system: Salmonella typhimurium LXX; assay: microbe, parasite or virus in culture; format: cell-based; settings: murium LXX, 16 h
Experimental: as §1, §3

[20] = test system: Acinetobacter baumannii ATCC 17978; assay: microbe, parasite or virus in culture; format: cell-based; settings: ATCC 17978, 16 h
Experimental: as §1, §3

[21] = test system: Klebsiella pneumoniae ATCC 13883; assay: microbe, parasite or virus in culture; format: cell-based; settings: ATCC 13883, 16 h
Experimental: as §1, §3

[22] = test system: Enterococcus faecalis 26; assay: microbe, parasite or virus in culture; format: cell-based; settings: 26, 16 h
Experimental: as §1, §3

[23] = test system: Staphylococcus aureus ATCC 25923; assay: microbe, parasite or virus in culture; format: cell-based; settings: ATCC 25923, 16 h
Experimental: as §1, §3

[24] = test system: Enterococcus faecalis ATCC 29212; assay: microbe, parasite or virus in culture; format: cell-based; settings: ATCC 29212, 16 h
Experimental: as §1, §3

[25] = test system: Pseudomonas aeruginosa ATCC 9027; assay: microbe, parasite or virus in culture; format: cell-based; settings: ATCC 9027, 16 h
Experimental: as §1, §3

[26] = test system: Shigella Castellani LXX; assay: MIC assay (broth micro-dilution); format: cell-based; settings: Table S11; LB broth, 37 °C, 16 h, n = 2
Experimental: as §1, §3

[27] = test system: HeLa cells; assay: Cytotoxicity assay (CCK-8); format: cell-based, human; settings: 48 h
Experimental: The cytotoxicity of each synAQU peptide was assessed using a cell counting kit‐8 (CCK‐8) assay. HeLa cells were first seeded in a 96‐well flat‐bottom microtiter plate with a density of ∼5000 cells per well and incubated in the DMEM medium supplemented with 10% FBS at 37 °C with 5% CO2 for 24 h. […] All cytotoxicity experiments were done in triplicate (n = 3) and repeated two independent times (n = 2).

[28] = Table S11, LB broth, 37 °C, 16 h, n = 2

CCCCC[C@@H]1CC(=O)N[C@@H](CN)C(=O)N[C@@H](Cc2ccccc2)C(=O)N[C@@H](CCN)C(=O)N[C@@H]([C@@H](C)O)C(=O)N[C@H](Cc2ccccc2)C(=O)N[C@@H](CN)C(=O)N[C@H](CC(C)C)C(=O)N[C@@H](C(C)C)C(=O)N[C@@H](CC(=O)O)C(=O)O1 [synAQU3-cFA] ([Dap]F[Dab]T[dF][Dap][dL]VD; linker N-C via X3)
MIC Candida albicans ATCC 64550 [1]: 32 µg/mL (≈ 28.1 µM) | MIC Candida albicans ATCC 10231 ([2]; Table S11, YPD broth, 30 °C, 16 h, n = 2): 32 µg/mL (≈ 28.1 µM) | MIC Staphylococcus aureus Newman [3]: > 64 µg/mL | MIC Staphylococcus aureus USA300 [4, 28]: > 64 µg/mL | MIC Acinetobacter baumannii P53 [5]: > 64 µg/mL | MIC Staphylococcus aureus ATCC 6538 [6]: > 64 µg/mL | MIC Vibrio alginolyticus XSBZ14 [7]: > 64 µg/mL | MIC Salmonella enterica ATCC 14028 [8]: > 64 µg/mL | MIC Pseudomonas aeruginosa PAO1 [9]: 64 µg/mL (≈ 56.3 µM) | MIC Enterococcus faecalis 28 [10]: > 64 µg/mL | MIC Klebsiella pneumoniae CRKP 5452 [11, 28]: > 64 µg/mL | MIC Enterococcus faecium 35682 [12]: 32 µg/mL (≈ 28.1 µM) | MIC Streptococcus mutans ATCC 25175 [13]: 32 µg/mL (≈ 28.1 µM) | MIC Klebsiella pneumoniae CRKP HS11286 [14]: > 64 µg/mL | MIC Klebsiella pneumoniae NCTC 5056 [15]: > 64 µg/mL | MIC Streptococcus pyogenes ATCC 19615 [16, 28]: 8 µg/mL (≈ 7.03 µM) | MIC Acinetobacter baumannii 1104008 [17, 28]: > 64 µg/mL | MIC Acinetobacter baumannii ATCC 19606 [18]: > 64 µg/mL | MIC Salmonella typhimurium LXX [19]: 64 µg/mL (≈ 56.3 µM) | MIC Acinetobacter baumannii ATCC 17978 [20]: 64 µg/mL (≈ 56.3 µM) | MIC Klebsiella pneumoniae ATCC 13883 [21]: > 64 µg/mL | MIC Enterococcus faecalis 26 [22]: 16 µg/mL (≈ 14.1 µM) | MIC Staphylococcus aureus ATCC 25923 [23]: > 64 µg/mL | MIC Enterococcus faecalis ATCC 29212 [24]: > 64 µg/mL | MIC Pseudomonas aeruginosa ATCC 9027 [25]: 32 µg/mL (≈ 28.1 µM) | MIC Shigella Castellani LXX [26]: 64 µg/mL (≈ 56.3 µM)

CCCCC[C@@H](O)CC(=O)N[C@@H](CN)C(=O)N[C@@H](Cc1ccccc1)C(=O)N[C@@H](CCN)C(=O)N[C@@H]1C(=O)N[C@H](Cc2ccccc2)C(=O)N[C@@H](CN)C(=O)N[C@H](CC(C)C)C(=O)N[C@@H](C(C)C)C(=O)N[C@@H](CC(=O)O)C(=O)O[C@@H]1C [synAQU3-C4] ({Octanoyl(3R-OH)}-[Dap]F[Dab]T[dF][Dap][dL]VD; ester 4-C (inferred))
MIC (μg/mL) Hela [27]: > 64 µg/mL | MIC (μg/mL) C. albicans ATCC 10231 [2]: > 64 µg/mL | MIC (μg/mL) S. aureus USA300 [4]: > 64 µg/mL | MIC (μg/mL) K. pneumoniae CRKP 5452 [11]: > 64 µg/mL | MIC (μg/mL) S. pyogenes ATCC 19615 [16]: > 64 µg/mL | MIC (μg/mL) A. baumannii 1104008 [17]: > 64 µg/mL

CCCCC[C@@H](O)CC(=O)N[C@H]1CNC(=O)[C@H](CC(=O)O)NC(=O)[C@H](C(C)C)NC(=O)[C@@H](CC(C)C)NC(=O)[C@H](CN)NC(=O)[C@@H](Cc2ccccc2)NC(=O)[C@H]([C@@H](C)O)NC(=O)[C@H](CCN)NC(=O)[C@H](Cc2ccccc2)NC1=O [synAQU3-C1] ({Octanoyl(3R-OH)}-[Dap]F[Dab]T[dF][Dap][dL]VD; lactam 1-C (inferred))
MIC (μg/mL) Hela [27]: > 64 µg/mL | MIC (μg/mL) C. albicans ATCC 10231 [2]: > 64 µg/mL | MIC (μg/mL) S. aureus USA300 [4]: > 64 µg/mL | MIC (μg/mL) K. pneumoniae CRKP 5452 [11]: > 64 µg/mL | MIC (μg/mL) S. pyogenes ATCC 19615 [16]: > 64 µg/mL | MIC (μg/mL) A. baumannii 1104008 [17]: > 64 µg/mL

CCCCCCCCCCCCCC(=O)N[C@@H](Cc1ccccc1)C(=O)N[C@H]1CCCNC(=O)CNC(=O)[C@H](CCN)NC(=O)[C@@H](Cc2ccc(O)cc2)NC(=O)[C@H](CC(C)C)NC(=O)[C@H]([C@@H](C)CC)NC(=O)[C@@H](C(C)C)NC(=O)[C@H](CCCN)NC1=O [synAQU2-C2] (Myristoyl-F[Orn][Orn][dV]IL[dY][Dab]G; lactam 2-C (inferred))
MIC (μg/mL) Hela [27]: > 64 µg/mL | MIC (μg/mL) C. albicans ATCC 10231 [2]: > 64 µg/mL | MIC (μg/mL) S. aureus USA300 [4]: > 64 µg/mL | MIC (μg/mL) K. pneumoniae CRKP 5452 [11]: > 64 µg/mL | MIC (μg/mL) S. pyogenes ATCC 19615 [16]: > 64 µg/mL | MIC (μg/mL) A. baumannii 1104008 [17]: > 64 µg/mL
